Measured values taken from patent US11147820B2, “Methods for treating GI tract disorders” (Neurogastrx, Inc., priority 2012, dated 2021).

How the values were obtained:
[1] = system: cardiac action potentials; experiment: Canine cardiac action potentials by electrocardiography and telemetry; format: in vivo; conditions: dogs, oral gavage, post-dose period 1-6 hours, vs vehicle
Description: Anesthesia is introduced to dogs. Balanced gaseous anesthesia is used throughout the surgical procedure. Once anesthetized, animals are shaved and surgically scrubbed, encompassing surgical sites of the right inguinal area, chest and right lateral abdomen. Throughout the surgical procedure, animals are monitored for continuous assessment of vital signs. An incision is made along the right medial thigh and the femoral artery exposed by blunt dissection. Another incision is made in the lateral lumbar area cranial to the iliac crest for a tunneling needle to be passed subcutaneously from the incision on the medial thigh to the lumbar incision. A blood pressure catheter is passed through the needle from the lumbar incision and the needle removed. The femoral artery is ligated distally and incised to insert a catheter that is advanced until the tip resided in the femoral artery/abdominal aorta. The catheter is then secured by ligation. The incision in the lumbar area is enlarged and a subcutaneous pocket created in the left dorsal lumbar area to hold the transmitter body. The transmitter (e.g., Data Sciences International, St Paul, Minn., USA) is inserted into the subcutaneous pocket and secured body. Electrocardiography (ECG) leads are positioned. The incision is closed. Postoperative recovery lasts, e.g., about 2 weeks during which supplemental analgesics/antibiotics are administered as needed. Once the postoperative recovery period is complete, the animal is examined for study acceptability by the staff veterinarian and the implanted transmitter signal verified. […] ECGs, heart rate and arterial blood pressure data are recorded 1 hour prior to and then continuously for at least 6 hours following compound and/or vehicle administration. A blood sample for determination of compound plasma concentrations is collected from all subjects at approximately 6 h post-dose. […] Standard ECG intervals (PR, RR, QRS and QT) are automatically measured by the data acquisition system and reported as, e.g., 10 min averages. […] Dose-level averages (and accompanying standard deviation (s.d.) of these baseline-adjusted 10 min averages are calculated across study animals. ANOVA (e.g., repeated measures ANOVA) are applied to these baseline-adjusted averages. Pairwise t-tests are applied within the ANOVA to identify the presence of significant differences of the dose levels relative to vehicle. These t-tests are performed at a 0.05/2=0.025 significance level, so that the overall error rate across the comparisons in a given interval are not higher than 0.05. ECG interval data (reported at 30 min intervals) are analyzed using, e.g., repeated-measures ANOVA techniques similar to the systemic blood pressure and heart rate data described above.

gastric emptying = experiment: Gastric emptying in rodents, metopimazine; format: in vivo; conditions: preliminary
gastric motility = experiment: Antral manometry in canines (gastric motility); format: in vivo; conditions: for motor dysfunction: canines
Protocol: Two healthy female hound dogs (24-28 kg) were involved in this study. Animals were fed an ad libitum chow diet (LabDiet®). After an overnight fast, the dogs were anesthetized with Pentothal (sodium thiopental, 11 mg/kg IV; Abbott Laboratories, North Chicago, Ill.) and maintained on 2-4% isoflurane (Abbott Laboratories) in oxygen (1 L/min) carrier gases delivered from a ventilator after endotracheal intubation. A cannula was placed in the jejunum 20 cm distal to the pylorus for the assessment of antral motility. Dogs were allowed to recover in their individual cages for 2 weeks. All experiments were performed after the dogs were completed recovered from the surgical procedure. The study was performed according to the National Institutes of Health Guidelines on the use of laboratory animals and approved by the Animal Care and Use Committee of the University of Texas Medical Branch at Galveston, Tex. To investigate the effect of the drugs on antral manometry, the study of each drug dose was done on three randomized sessions on separate days following the consumption of one can of solid dog food: 1) a Control session: In which animals received the vehicle only; 2) Dose I session: in which the lower dose of the drug was used; and 3) Dose II session: in which the higher dose of the drug was used (please refer to table for drug doses). Drug administration was performed according to Table 4, below. [table] Antral manometry was performed as follows. Following an overnight fast, an intraluminal water-perfused manometry catheter was inserted into the antrum through the jejunal cannula. Antral manometry recording was initiated after the consumption of one can of solid food and continued for 3 hours. The catheter contained 3 manometric sensors at a 1 cm interval. Dogs were given 10 minutes of accommodation, prior to the start of the recording. For data analysis, motility index (MI), defined as the integrated area (area under curve—AUC) between baseline and contractions per hour, was calculated. For statistical analysis, the Student's t-test was used for assessment of individual differences between groups (High dose, low dose of each drug) compared to control—Microsoft® Excel 2002). All values are expressed as mean±SEM.

solid gastric emptying = experiment: Solid gastric emptying in rats, S-carbidopa; format: in vivo, Sprague-Dawley rats; conditions: 1 mg/kg, initial results
Protocol: Male Sprague-Dawley rats, purchased from the Charles River Lab, were housed in the animal facility of Veterans Research Education Foundation, which was maintained at 22˜24° C., 55% relative humidity, with an automatic 12 h light/dark cycle. The animals received a standard laboratory rat chow and tap water ad libitum. The rats were around 400 g at 14 weeks age when used in gastric emptying study.
S-Carbidopa was purchased from Sigma (#: C1335). Stock solution of S-Carbidopa was prepared at 5 mg/ml using DMSO as solvent. 80 μl stock solution was further diluted into 1 ml distilled water to make 0.4 mg/ml. The effect of S-Carbidopa (1 mg/kg) on solid gastric emptying was studied.
Male SD rats were involved in this study. Rats were fasted in cages with metal wired mesh for 24 hours with free access to water; S-carbidopa (1 mg/kg) was administered to the rats by oral gavage. Control rats were not administered S-carbidopa. 15 minutes following administration, rats were given access to 2 g of rat chow pellets for ten minutes. All rats completely ingested the chow within the 10 minute time frame. Rats were sacrificed by sodium pentobarbital (100 mg/kg) overdose 90 min after feeding. […] Solid gastric emptying was calculated according to the following formula: Gastric emptying (%)=[1−(dried gastric content in g)/2 g]×100. All values are expressed as mean±SEM. […]

| Structure (SMILES) | peripheral restriction (Peripheral restriction) | QTc intervals [1] | motor dysfunction (gastric motility) | other results |
| --- | --- | --- | --- | --- |
| CS(=O)(=O)c1ccc2c(c1)N(CCCN1CCC(C(=O)O)CC1)c1ccccc1S2 [Metopimazine acid] | peripherally restricted agents | no significant increases | – | – |
| CS(=O)(=O)c1ccc2c(c1)N(CCCN1CCC(C(N)=O)CC1)c1ccccc1S2 [Metopimazine, 1-[3-[2-(methylsulfonyl)-10H-phenothiazin-10-yl]propyl]-piperidine-4-carboxamide] | peripherally restricted agents | no significant increases | no motor dysfunction was observed | increase in gastric emptying as compared to vehicle control (gastric emptying; 3 mg/kg): about 40%; increase in gastric emptying as compared to vehicle control, overall effect (gastric emptying; pooling the 3 mg/kg and 10 mg/kg doses): about 20% |
| C[C@@](Cc1ccc(O)c(O)c1)(NN)C(=O)O [S-Carbidopa, (2S)-3-(3,4-dihydroxyphenyl)-2-hydrazino-2-methylpropanoic acid] | – | no significant increases | no motor dysfunction was observed | solid gastric emptying compared to control rats (solid gastric emptying): improves solid gastric emptying; motility index (MI) (gastric motility; 1 mg/kg IV, 15 min prior to meal, all three channels, p=0.05): robustly increased MI |
| CN(CCOc1ccc(NS(C)(=O)=O)cc1)CCc1ccc(NS(C)(=O)=O)cc1 [dofetilide] | – | increased | – | – |
| Cl.NCCc1ccc(O)c(O)c1 [dopamine hydrochloride] | – | – | – | motility index (MI) (gastric motility; 50 mg/canine IV, immediately before meal, all channels, p=0.06): decreased MI |
